Measurements from patent publication US20250121067A1, “WATER-SOLUBLE CANNABINOID PRODRUGS COMPOSITIONS AND METHODS OF SYNTHESIZING THE SAME” (Trait Biosciences, Inc., priority 2022, published 2025).

Experiments:
[1] = intrinsic aqueous solubility; Int. J. Pharmaceutics 2020, 589, 119812; cited from earlier work
physchem = settings: aqueous medium, thermodynamic from solid, room temperature
Experimental: The thermodynamic aqueous solubility of CBD and CBG glycine conjugates in salt forms was determined using the equilibrium shake method outlined in the United States Pharmacopeia (USP) General Chapter <1236>Solubility Measurements (Table 1).

[2] = Solubility (mg/mL) CBD/CBG equivalent, expressed as CBD/CBG equivalent
[3] = Solubility (mg/mL) Salt derivative, expressed as salt derivative

Structure (SMILES) | solubility of CBD [1] [µg/mL] | solubility (physchem; [2]) [µg/mL] | solubility (physchem; [3]) [µg/mL]
C=C(C)[C@@H]1CCC(C)=C[C@H]1c1c(O)cc(CCCCC)cc1O [CBD, cannabidiol] | 0.1 |  | 
C=C(C)[C@@H]1CCC(C)=C[C@H]1c1c(O)cc(CCCCC)cc1OC(=O)NCC(=O)[O-].[Na+] [Example 3, Sodium ((((1′R,2′R)-6-hydroxy-5′-methyl-4-pentyl-2′-(prop-1-en-2-yl)-1′,2′,3′,4′-tetrahydro-[1,1′-biphenyl]-2-yl)oxy)carbonyl)glycinate] |  | 3140 | 4370
CCCCCc1cc(O)c(C/C=C(\C)CCC=C(C)C)c(OC(=O)NCC(=O)[O-])c1.[Na+] [Example 10, Sodium (E)-((2-(3,7-dimethylocta-2,6-dien-1-yl)-3-hydroxy-5-pentylphenoxy)carbonyl)glycinate] |  | 10000 | 13300
